Measurements taken from ChEMBL document CHEMBL1201862, “PubChem BioAssay data set” (2004).
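Step 1: Grow cells in 96-well plates. Step 2: Expose to compound for 48 hours at 5 concentrations. Step 3: Interpolate endpoints linearly; if unreached, use highest concentration. GI50 is the concentration that inhibits growth by half.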 Calls of active or inactive are those of the source. Rule as the data show it: active = GI50 up to about 1.1 µM and inactive = higher.

Tests used:
Experiment in all cases: DTP human tumour cell line panel, 48 h
[1] = system: SW-620
[2] = system: SNB-19
[3] = system: IGROV-1
[4] = system: EKVX
[5] = system: MDA-MB-435
[6] = system: M14
[7] = system: MOLT-4
[8] = system: Malme-3M
[9] = system: BT-549
[10] = system: OVCAR-4
[11] = system: SK-MEL-5
[12] = system: LOX IMVI
[13] = system: A498
[14] = system: HT-29
[15] = system: SK-OV-3
[16] = system: OVCAR-5
[17] = system: MDA-MB-231
[18] = system: SNB-75
[19] = system: UO-31
[20] = system: CAKI-1

| Structure (SMILES) | GI50 [1] | GI50 [2] | GI50 [3] | GI50 [4] | GI50 [5] | GI50 [6] | GI50 [7] | GI50 [8] | GI50 [9] | GI50 [10] | GI50 [11] | GI50 [12] | GI50 [13] | GI50 [14] | GI50 [15] | GI50 [16] | GI50 [17] | GI50 [18] | GI50 [19] | GI50 [20] |
| --- | --- | --- | --- | --- | --- | --- | --- | --- | --- | --- | --- | --- | --- | --- | --- | --- | --- | --- | --- | --- |
| CC(C)C(/C=C/c1ccc(Cl)cc1)=N\NC(=O)N/N=C(/C=C/c1ccc(Cl)cc1)C(C)C | 82 µM (inactive) | 19.8 µM (inactive) | 28.8 µM (inactive) | 21.4 µM (inactive) | 30.1 µM (inactive) | 24.2 µM (inactive) | 48.8 µM (inactive) | 58.5 µM (inactive) | 34.4 µM (inactive) | 19.6 µM (inactive) | 64.6 µM (inactive) | > 10 µM (inactive) | 18.1 µM (inactive) | 42.3 µM (inactive) | 32.4 µM (inactive) | > 100 µM (inactive) | 22.3 µM (inactive) | 21.7 µM (inactive) | 40.9 µM (inactive) | 18.5 µM (inactive) |
| O=S1(=O)C[C@@H](NCc2ccccc2)[C@H](NCc2ccccc2)C1 | > 100 µM (inactive) | > 100 µM (inactive) | 26.2 µM (inactive) | > 100 µM (inactive) | > 100 µM (inactive) | 53.5 µM (inactive) | > 100 µM (inactive) | > 100 µM (inactive) | > 100 µM (inactive) | > 100 µM (inactive) | > 100 µM (inactive) | > 100 µM (inactive) | – | > 100 µM (inactive) | > 100 µM (inactive) | > 100 µM (inactive) | > 100 µM (inactive) | > 100 µM (inactive) | > 100 µM (inactive) | > 100 µM (inactive) |
| CN1C2CCC1C(CO)C(=O)C2 (configuration not stated) | 20.4 µM (inactive) | – | > 100 µM (inactive) | – | > 100 µM (inactive) | – | 18.2 µM (inactive) | 28.9 µM (inactive) | > 100 µM (inactive) | > 100 µM (inactive) | > 100 µM (inactive) | > 100 µM (inactive) | > 100 µM (inactive) | – | > 100 µM (inactive) | – | > 100 µM (inactive) | > 100 µM (inactive) | – | 32.7 µM (inactive) |
| CN1C2CC(=O)CC1[C@H](O)[C@@H]2O | > 100 µM (inactive) | > 100 µM (inactive) | – | > 100 µM (inactive) | > 100 µM (inactive) | > 100 µM (inactive) | > 100 µM (inactive) | > 100 µM (inactive) | > 100 µM (inactive) | – | – | > 100 µM (inactive) | – | > 100 µM (inactive) | – | – | > 100 µM (inactive) | – | > 100 µM (inactive) | – |
| CC1OC1C(=O)C1(O)C(C)C(O)C23OC2(C(O)c2c(O)cccc2C3=O)C1O (configuration not stated) [CERVICARCIN] | 0.078 µM (active) | 0.153 µM (active) | 0.219 µM (active) | 0.0908 µM (active) | – | – | 0.0415 µM (active) | 0.0431 µM (active) | – | 0.032 µM (active) | 0.179 µM (active) | 0.2 µM (active) | 0.352 µM (active) | 0.173 µM (active) | 0.111 µM (active) | 0.31 µM (active) | – | 0.212 µM (active) | 0.137 µM (active) | 0.0497 µM (active) |
| COc1ccc2c3c1O[C@H]1C[C@@H](O)C=C[C@@]31CCN(C)C2 [GALANTAMINE] | > 150 µM (inactive) | > 150 µM (inactive) | > 150 µM (inactive) | > 150 µM (inactive) | – | – | > 150 µM (inactive) | > 150 µM (inactive) | – | > 150 µM (inactive) | > 150 µM (inactive) | > 150 µM (inactive) | > 150 µM (inactive) | > 150 µM (inactive) | > 150 µM (inactive) | > 150 µM (inactive) | – | > 150 µM (inactive) | > 150 µM (inactive) | 114 µM (inactive) |
